Reference: EP2468741A1, “Novel quercetin derivatives, their preparation, pharmaceutical compositions containing them and their use” (Bel/Novamann International s.r.o., priority 2010, dated 2012)

Assay: Free radical inhibiting activity in vitro (DPPH)
Type: biochemical
Settings: 50 µM DPPH in ethanol, 30 minutes, room temperature, decrease in OD, solvent control subtracted
Method: A 50 µM solution of 1,1-diphenyl-2-picrylhydrazyl (DPPH) in ethanol is added for 30 minutes at room temperature to a tested sample. The drop in absorbance is then measured and the results are given as the percentage decrease in OD caused by the test compound relative to the solvent used. The tested products are dissolved in ethanol (except product according to Example 7 when DMSO was used); the results (solvent control subtracted) are given as % free radical inhibiting activity as described in table 2.

Row | Compound | Free radical inhibiting activity (dissolved in DMSO) [%] | Free radical inhibiting activity (dissolved in ethanol) [%]
1 | 1,3-bis-butyryloxy-11a-hydroxy-9-(3,5,7-tributyryloxy-4H-1-benzopyran-4-on-2-yl)-5a-(3,4-bisbutyryloxyphenyl)-5,6,11-hexahydro-5,6,11-trioxanaphtacene-12-one [Example 7] | 95 | 
2 | CC(=O)Oc1ccccc1C(=O)Oc1cc(O)c2c(=O)c(OC(=O)c3ccccc3OC(C)=O)c(-c3ccc(OC(=O)c4ccccc4OC(C)=O)c(OC(=O)c4ccccc4OC(C)=O)c3)oc2c1 [Example 3, 3,7-bis-(2-acetylsalicyloyloxy)-2-(3,4-bis-(2-acetylsalicyloyloxy)phenyl)-5-hydroxy-chromen-4-one] |  | 82
3 | COc1cc(C=CC(=O)Oc2cc(O)c3c(=O)c(OC(=O)C=Cc4ccc(OCC=C(C)C)c(OC)c4)c(-c4ccc(OC(=O)C=Cc5ccc(OCC=C(C)C)c(OC)c5)c(OC(=O)C=Cc5ccc(OCC=C(C)C)c(OC)c5)c4)oc3c2)ccc1OCC=C(C)C [Example 8, 3-(O-prenylferuloyloxy)-2-(3,4-bis-(O-prenylferuloyloxy)phenyl)-7-(O-prenyl-feruloyloxy)-5-hydroxy-chromen-4-one] |  | 75
4 | O=c1c(O)c(-c2ccc(O)c(O)c2)oc2cc(O)cc(O)c12 [Quercetin] |  | 62
